A short description of assay [1]: Binding affinity to microtubule at 30 uM after 30 mins by HPLC-MS analysis.
The subject of the next assay is PtK2. Nature of the assay: Displacement of Flutax-2 from microtubule in potoroo PtK2 cells at 100 uM. To be noted: Potorous tridactylus.
A further assay relates to A2780. Put plainly: Induction of mitotic cell cycle arrest in human A2780 cells assessed as accumulation of cells at SubG1 phase at 100 nM after 24 hrs by flow cytometry (Rvb= 2.5%). It counts as functional. Background: In flow cytometry, cells or beads pass a laser one at a time.
A short description of assay [2]: Induction of mitotic cell cycle arrest in potoroo PtK2 cells assessed as accumulation of cells at G2+M phase at 5 uM treated for 7 hrs, washed followed by 16 hrs incubation by flow cytometry (Rvb= 23%). It counts as functional, Potorous tridactylus.

Activity calls are given as the source filed them. The rule behind the calls is not given here.

Take `CC1=C[C@H]2[C@@H](O)[C@H](C)[C@@H](O)[C@@H]2[C@H]2[C@@H]3C4=C5O[C@](C)(CC[C@@H](OC4=O)[C@H]5C)[C@@H]3C[C@@H]12` [CYCLOSTREPTIN]: the result (in assay [1]; with PtK2) was Active. The Activity in the assay with A2780 turned out to be 16.3%; in assay [2], 65.5%.

The values are drawn from ChEMBL document CHEMBL1240321, “Cyclostreptin binds covalently to microtubule pores and lumenal taxoid binding sites” (Nat Chem Biol, 2007).
